In patent US10189881B2, “MPS peptides and use thereof” (The Regents of the University of California, priority 2013, dated 2019):

Experiments:
cancer cells = assay: Anti-cancer activity of alanine-substituted MPS (method not given)
CL1-0 cells = assay: NBD-labeled peptide binding to live cells (confocal microscopy); type: cell-based, human; settings: NBD-labeled peptides; b53 versus D-Mut, b70 versus SEQ ID NO: 9
Excerpt: FIGS. 28A-28C show MPS peptide binding to live cells. (A) Peptide sequences showing substitution of serine residues in MPS peptide (SEQ ID NO: 9). The serine residues of MPS peptide were replaced either by adding 4 aspartic acids (SEQ ID NO: 14), which are negatively charged and result in making the final peptide less positive, or by adding 4 alanines (SEQ ID NO: 10), which increased membrane affinity. Both the MPS and alanines-substituted (A-Mut) MPS peptides are highly positive charged and interact electrostatically with PIP2 on the phospholipid membrane. In contrast, electrostatic interaction with cell membrane is decreased in aspartates-substituted (D-Mut) MPS peptide (Gambhir, A. et al. (2004) Biophys. J. 86:2188-2207; Rusu, L. et al. (2004) Biophys J. 87:1044-1053; Glaser, M. et al. (1996) J. Biol. Chem. 271:26187-26193; Ellena, J.F. et al. (2003) Biophys. J. 85:2442-2448; McLaughlin, S. et al. (2005) Nature 438:605-611). Figure discloses “MH” domain as SEQ ID NO: 42. […] MPS peptide, D-Mut, and A-Mut MPS peptide were labeled with NBD (4-Chloro-7-Nitrobenz-2-Oxa-1,3-Diazole) dye. After purification of peptides, CL1-0 cells were treated with various NBD-labeled peptides and then subjected to DAPI staining. The NBD-labeled peptide (green) and nucleus counter-stain (blue) were visualized via confocal laser-scanning microscopy. […]

[1] = test system: MARCKS phosphorylation (Ser159/163); assay: Western blot of MARCKS phosphorylation in peptide-treated cells; type: cell-based, human; settings: alanine-substituted peptide
Procedure: The levels of MARCKS phosphorylation in chemoresistant cancer cell lines after 24 hours of MPS or mutant (Mut) peptide treatment. Lysates form 100 μM MPS-or Mut peptide-treated H1650 or H1975cells were subjected to immunoblotting. The sequences of MARCKS MPS peptide consisted of amino acids 152 to 176 from the wild-type protein (SEQ ID NO: 9). The sequences of mutated MPS peptide (Mut) (SEQ ID NO: 14) had the replacement of serine residues (S) by aspartate (D) and are unable to be recognized by PKC. The underline represents the PIP2 binding site.
FIGS. 13A-13G show MPS peptide suppresses cancer cell proliferation and also induces apoptosis in these cells through direct downregulation of MARCKS activation. (A) Determination of MARCKS phosphorylation levels after 24 hours of MPS peptide treatment. Lysates from 1-100 μM MPS peptide-treated H1975 cells were subjected to western blot analysis. (B) Levels of PIP3 in drug resistant cancer cell lines after MPS peptide treatment. Cells were treated with 10, 50 or 100 μM MPS peptide. After 24 hours of treatment, PIP3 lipids were extracted from these cells and analyzed by a PIP3 ELISA kit. *P<0.05 compared with untreated cells. (C) Downregulation of AKT phosphorylation by MPS peptide treatment, but not by Mut peptide. Cells were treated with 100 μM MPS or Mut peptide for 24 hours. Lysates were immunoblotted with the indicated antibodies. (D) Cell viability analysis of six cancer cell lines and human bronchial epithelial cells (HBE1) upon MPS treatment. Cells were incubated with various concentrations of MPS peptide for 72 hours and then subjected to MTS assays. Polylysine served as a peptide control. n=4, *P<0.05 compared with untreated cells (Con). (E) Cells were treated with the indicated concentrations of MPS peptide and colonies were counted after 10 days of treatment using crystal violet staining (F) MPS treatment augments cell death. […] The percentages of apoptotic cells were quantified by flow cytometry (top), and presented as mean±SD of three experiments (bottom). *, P<0.05 versus untreated cells (Con). […]

KKKKKRFAFKKAFKLAGFAFKKNKK [SEQ ID NO: 10, alanines-substituted MPS peptide]
Anti-cancer activity compared to MPS peptide of SEQ ID NO: 9 (cancer cells): better anti-cancer activity | Peptide-cell interaction (CL1-0 cells): greater peptide-cell interaction | Phospho-MARCKS levels in cancer cells [1]: reduce phospho-MARCKS levels
